Data set [1] concerns human pancreatic cancer cell line Colo357. In words: Annexin-V/PI flow cytometry apoptosis assay, Colo357 with irradiation. The class given is cell-based. On the procedure:
Next, the apoptosis-enhancing effect of DHMEQ on irradiated tumor cells was investigated. The human pancreatic cancer cell line Colo357 given 10 μg/ml DHMEQ for six hours, the human pancreatic cancer cell line Colo357 irradiated with 20 Gy radiation and then incubated for 6 hours, and the human pancreatic cancer cell line Colo357 given 10 μg/ml DHMEQ for six hours immediately after irradiation with 20 Gy radiation were subjected to Annexin-V/propidium iodide (PI) double staining. The apoptotic cells (lower right) were measured by flow cytometry and the ratio was calculated. […] On the other hand, in the cells to which DHMEQ was administered after irradiation with 20 Gy radiation, the apoptosis-inducing ability is enhanced three-fold, as compared with the cells only irradiated with 20 Gy radiation
(In general: Flow cytometry measures light scatter and fluorescence of single cells or particles in a stream.)

Data set [2] deals with MM cell lines, KMM1, RPMI8226, and U266. Kind of data set: Apoptosis of multiple myeloma cell lines (Annexin-V, Hoechst staining). The class given is cell-based. The procedure: Further, to investigate apoptosis induction of MM cell lines by DHMEQ, the MM cell lines, KMM1, RPMI8226, and U266, were incubated for 0, 24, and 48 hours at a concentration of 10 μg/ml and the apoptosis was examined by Annexin-V staining.
Further, to confirm apoptosis induction in MM cell lines by DHMEQ, the MM cell lines, KMM1, RPMI8226, and U266, were incubated for 72 hours at a concentration of 10 μg/ml and the apoptosis was examined by observing nuclear condensation or fragmentation with a fluorescence microscope, using Hoechst staining.

Data set [3] concerns ICR mice. Kind of data set: Acute toxicity test in ICR mice. The class given is in vivo. Conditions: ICR mice i.p. The procedure: (§1) An acute toxicity test of DHMEQ was performed as follows: DHMEQ was dissolved in one drop of 10% DMSO saline+Tween, administered to the abdominal cavity of ICR mice, and the mortality/survival and status of the mice after 24 hours were investigated.

Data set [4] is described as follows: Acute toxicity test in ICR mice. The note with it: mouse, in vivo, intraperitoneal; ICR mice, abdominal cavity, 24 hours; read-out: acute toxicity LD 50. The class given is in vivo. The procedure: as §1
Data set [5] addresses NF-κB (Homo sapiens, UniProt P19838+Q04206). In words: Gel shift assay of NF-κB activation by antitumor agents in KMH2 cells. Type of data set: cell-based. Further details: endogenous in cells; host or cells: HL cell lines KMH2, L428, L540, HDLM2 (A30: KMH2 treated with antitumor agents). The note with it: camptothecin or daunomycin with concurrent DHMEQ.
Method: The ATL cell lines (MT-1 and TL-Om1) and the control cell lines (K562 and Jurkat+TNF), 2×10^6 cells each, were treated with 10 μg/ml DHM2EQ for 12 hours, and nuclear extract was prepared from each cell line. Likewise, nuclear extract was prepared also from the cell lines not treated with DHM2EQ.
The equivalent of 2 μg of nuclear extract protein was mixed with NF-κB probes (the equivalent of 10,000 cpm) in a volume of 20 μl and reacted at room temperature for 30 min. The solution after the reaction was subjected to 7.5% polyacrylamide gel electrophoresis. The gel was then dried and exposed to an X-ray film.
Data set [6] deals with normal peripheral blood mononuclear cells. In words: MTT assay, normal peripheral blood mononuclear cells. Type of data set: cell-based, human. On the procedure: Mononuclear cells were isolated from normal peripheral blood and DHM2EQ was added at final concentrations of 2, 5, and 10 μg/ml, followed by 72-hour incubation. The proliferation-inhibitory effect was examined by the MTT assay. Cells to which the solvent DMSO had been added in equal volume (0 μg/ml) were used as controls. The cell viability was represented as the ratio to the MTT value of the controls (DHM2EQ-untreated) by letting it=100%.
Next, to investigate the inhibitory effect of DHMEQ on proliferation of cells of multiple myeloma (MM) patients, MM cells (MM1, MM2, and MM3) were isolated from patients' bone marrow, incubated for 48 hours at the DHMEQ concentration of 10 μg/ml, and the proliferation-inhibitory effect was examined by the MTT assay. Peripheral blood mononuclear cells (PBMC) isolated from normal peripheral blood were used as control cells. In the figure, the vertical axis indicates the relative values of the MTT values of treated cells versus untreated cells, i.e., (DHMEQ-treated/untreated)×100%.
A general note: Tetrazolium assays rely on reduction of a dye to a coloured formazan, in cell work by metabolically active cells.

Data set [7] relates to cells of multiple myeloma (MM) patients. In words: Hoechst staining apoptosis assay, cells of multiple myeloma patients. Conditions: 10 μg/ml, 72 hours. The class given is cell-based, human. On the procedure: Further, to investigate apoptosis induction of cells of multiple myeloma (MM) patients by DHMEQ, cells of multiple myeloma (MM) patients were incubated for 72 hours at a concentration of 10 μg/ml and the apoptosis was examined by observing nuclear condensation or fragmentation with a fluorescence microscope, using Hoechst staining.

The test system of data set [8] is cachexia symptoms induced by JCA-1 cells. Kind of data set: Cancer cachexia model, JCA-1 tumor-bearing BALB/c nude mice. Type of data set: in vivo. On the procedure:
To assay the effect of the compounds represented by the general formula (1) or pharmacologically acceptable salts thereof on cachexia, cachexia-induced BALB/c nude mice were used as model mice of human patients with cachexia. Here, cachexia symptoms were induced using the androgen-insensitive human prostatic cancer cell-line JCA-1.
To measure the effect of DHMEQ on cachexia symptoms, the cachexia model mice were prepared using the aforementioned nude mice. JCA-1 cells (1×10^7 cells) suspended in 100 μl of PBS were inoculated subcutaneously into the flank of six-old-week nude mice (hereafter called tumor-bearing mice). Fourteen days after the inoculation, when the tumors had reached palpable sizes, the inoculated mice were randomly assigned to three groups: group 2 (Gr2; n=13), given DHMEQ (8 mg/kg bw) every day; group 3 (Gr3; n=13), given DMSO every day; and group 4 (Gr4; n=11), given nothing. Group 1 (Gr1; n=14), consisting of normal nude mice not inoculated with JCA-1 cells (hereinafter called “normal mice”), was also included. From the next day of administration of DHMEQ, the body weights (FIG. 20) and the tumor weights (FIG. 21) calculated from the tumor diameters were measured every other day. On day 26 after the start of administration of DHMEQ, all mice were dissected and the tumor weights (FIG. 22), the weights of fat around the testis (FIG. 23) the gastrocnemius weights (FIG. 24), and the hematocrits (FIG. 25; the ratio of the volume of blood cell components to that of whole blood, which can be measured by blood centrifugation) were measured. The measured values were summed up for every group.

The mark [9] stands for this setting: 8 mg/kg bw every day, day 26, Gr2 vs Gr3 and Gr4.

Chain of NF-κB (P19838 1-433 limits assumed): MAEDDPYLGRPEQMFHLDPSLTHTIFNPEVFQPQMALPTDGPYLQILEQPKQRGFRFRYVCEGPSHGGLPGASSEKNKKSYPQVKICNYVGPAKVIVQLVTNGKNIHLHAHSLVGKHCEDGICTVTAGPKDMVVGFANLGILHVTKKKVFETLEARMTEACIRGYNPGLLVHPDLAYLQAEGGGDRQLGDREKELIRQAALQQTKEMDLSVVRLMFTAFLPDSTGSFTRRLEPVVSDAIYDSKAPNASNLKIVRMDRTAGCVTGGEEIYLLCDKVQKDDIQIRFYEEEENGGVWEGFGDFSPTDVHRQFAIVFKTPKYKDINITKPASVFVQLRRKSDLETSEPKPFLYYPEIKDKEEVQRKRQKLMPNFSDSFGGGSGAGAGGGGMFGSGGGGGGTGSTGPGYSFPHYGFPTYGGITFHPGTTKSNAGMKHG
Chain of NF-κB (Q04206 whole entry): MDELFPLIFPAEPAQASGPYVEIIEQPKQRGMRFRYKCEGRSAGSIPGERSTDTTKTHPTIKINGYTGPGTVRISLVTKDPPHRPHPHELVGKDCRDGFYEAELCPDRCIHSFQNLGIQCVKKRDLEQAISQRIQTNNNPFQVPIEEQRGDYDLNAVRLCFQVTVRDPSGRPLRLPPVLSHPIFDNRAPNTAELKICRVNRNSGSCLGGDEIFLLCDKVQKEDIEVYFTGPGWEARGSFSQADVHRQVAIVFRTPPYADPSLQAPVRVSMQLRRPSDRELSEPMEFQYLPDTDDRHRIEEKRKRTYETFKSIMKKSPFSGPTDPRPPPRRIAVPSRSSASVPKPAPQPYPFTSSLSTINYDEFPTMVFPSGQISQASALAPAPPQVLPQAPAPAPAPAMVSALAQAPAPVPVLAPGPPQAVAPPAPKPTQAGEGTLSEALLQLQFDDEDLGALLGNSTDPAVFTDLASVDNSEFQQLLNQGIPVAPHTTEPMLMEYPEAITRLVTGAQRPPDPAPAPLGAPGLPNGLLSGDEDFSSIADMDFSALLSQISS

For `O=C(NC1=CC(=O)C2OC2C1O)c1ccccc1O` (centres unmarked) [DHMEQ, 5,6-epoxy-4-hydroxy-3-salicyloylamino-2-cyclohexenone], the “apoptosis-inducing ability versus irradiation only” value in data set [1] (10 μg/ml six hours after 20 Gy radiation) is given as “three-fold”. Further, the “apoptosis induction by DHMEQ alone” value in data set [1] (10 μg/ml, six hours) is “apoptosis was not induced”. Besides, the “apoptosis (Annexin-V staining)” value in data set [2] (10 μg/ml, 0, 24, 48 hours) is “apoptosis had been induced”. Further, the “apoptosis (Hoechst staining, nuclear fragmentation)” value in data set [2] (10 μg/ml, 72 hours) was “images of nuclear fragmentation by DHMEQ treatment were observed”. The “mortality/survival after 24 hours” value in data set [3] (5 mg/mouse (about 250 mg/kg)) is recorded as “dead on the day of administration”. In data set [3] (0.156, 0.313, 0.625, 1.25, or 2.5 mg/mouse), the “mortality/survival after 24 hours” value was “survived”. The LD50 at 24 h in data set [4] amounted to 188 mg/kg. In addition, the “NF-κB induction by antitumor agent” value in data set [5] is “strongly suppressed”. Also, the “proliferation of normal peripheral blood mononuclear cells (MTT)” value in data set [6] (2, 5, 10 μg/ml, 72 hours) is reported as “almost no inhibitory effect”. Also, in data set [6] (PBMC control, 10 μg/ml, 48 hours), the “influence on peripheral blood mononuclear cells (MTT)” value is “almost no influence”. Besides, the “apoptosis (Hoechst staining)” value in data set [7] is reported as “induces apoptosis”. Also, the body weight reduction entry in data set [8] (8 mg/kg bw every day (Gr2) vs Gr3 and Gr4) is “significantly suppressed”. For the same compound, in data set [8] (8 mg/kg bw every day, day 26), the “influence on internal organ weights” value is “No unfavorable influence” and the “regressive effect on tumors (tumor weight)” value is “no regressive effect”. In addition, in data set [8] (setting [9]), the gastrocnemius weight entry was “weight reduction was significantly suppressed”, the hematocrit result is “significant tendency of recovery” and the “weight of fat around the testis” value is listed as “weight reduction was significantly suppressed”.

These data come from patent US20060183794A1, “Drug composition containing nf-kb inhibitor” (priority 2002, published 2006).
